According to ChEMBL document CHEMBL3632471, “Inhibitory effects of compounds from Styrax obassia on NO production” (Bioorg Med Chem Lett, 2015):
Active and inactive are the calls of the source. No cut-off for these calls is given here.

Key:
RAW264.7 [1] = experiment: Antiinflammatory activity in mouse RAW264.7 cells assessed as inhibition of LPS-induced NO production at 3 to 30 ug/ml after 24 hrs by Griess reaction; type: functional
RAW264.7 [2] = experiment: Antiinflammatory activity in mouse RAW264.7 cells assessed as inhibition of LPS-induced NO production at 30 ug/ml after 24 hrs by Griess reaction; type: functional, cell-based
RAW264.7 [3] = experiment: (§1) Cytotoxicity against mouse RAW264.7 cells assessed as cell viability at 3 to 30 ug/ml after 24 hrs by MTT assay; type: cell-based; conditions: raw264.7, 24 h
RAW264.7 [4] = experiment: Antiinflammatory activity in mouse RAW264.7 cells assessed as inhibition of LPS-induced iNOS expression after 18 hrs by Western blot analysis; type: functional, cell-based
RAW264.7 [5] = experiment: Antiinflammatory activity in mouse RAW264.7 cells assessed as inhibition of LPS-induced COX2 expression at 3 to 30 ug/ml after 18 hrs by Western blot analysis; type: functional, cell-based
[6] = as §1; type: cell-based; conditions: RAW264.7 cells, read-out: Activity

Compound	inhibition (RAW264.7 [1])	inhibition (RAW264.7 [2])	also measured
COc1cc([C@H]2OC[C@H]3[C@@H]2CO[C@H]3c2ccc(O)c(OC)c2)ccc1O (stereo in doubt; 12)	inactive		
COc1cc([C@H]2OC[C@H]3[C@@H]2CO[C@H]3c2ccc(O)c(OC)c2)ccc1O (stereo in doubt; 11)	inactive		
COc1ccc(-c2cc3cc(CCCO)cc(OC)c3o2)cc1OC		inactive	
COc1cc(CCCO)cc2cc(-c3ccc4c(c3)OCO4)oc12	inactive		
COc1cc([C@H]2OC[C@H]3[C@@H]2CO[C@@H]3c2cc(OC)c(O)c(OC)c2)cc(OC)c1O	inactive		
COc1cc(C(O)CCO)cc2cc(-c3ccc4c(c3)OCO4)oc12 (centres undefined)	inactive		
COc1ccc(-c2cc3cc([C@@H](O)CCO)cc(OC)c3o2)cc1OC		inactive	Activity (RAW264.7 [3]): Non-toxic; inhibition (RAW264.7 [4]): Dose-dependent effect; inhibition (RAW264.7 [5]): Active
COc1cc([C@@H]2OCC3C(=O)OCC32)ccc1O (some centres undefined)		inactive	viability at 24 h [6]: 60%
COc1cc(-c2oc3c(OC)cc(CCCO)cc3c2C=O)ccc1O	inactive		
COc1cc(C[C@H]2CO[C@H](c3ccc(O)c(OC)c3)[C@H]2CO)ccc1O	inactive		
